# Assay results reported in US4456604A, “1-(3-Halo-2-pyridinyl) piperazine” (Merck & Co., Inc., priority 1982, dated 1984).
# Read-outs that look alike come from different tables or passages of the source.
# How the values were obtained:
# [1] = biological target: T1, α2-adrenergic receptor (Bos taurus, UniProt Q28838); assay: α2-adrenergic receptor binding ([3H] clonidine binding site, calf cerebral cortex); conditions: for affinity for the α2-adrenergic receptors (in words): of the compounds tested, with the exception of compound 5
# T1 construct: from tissue; host or cells: calf cerebral cortex
# T1 sequence (Q28838 1-468): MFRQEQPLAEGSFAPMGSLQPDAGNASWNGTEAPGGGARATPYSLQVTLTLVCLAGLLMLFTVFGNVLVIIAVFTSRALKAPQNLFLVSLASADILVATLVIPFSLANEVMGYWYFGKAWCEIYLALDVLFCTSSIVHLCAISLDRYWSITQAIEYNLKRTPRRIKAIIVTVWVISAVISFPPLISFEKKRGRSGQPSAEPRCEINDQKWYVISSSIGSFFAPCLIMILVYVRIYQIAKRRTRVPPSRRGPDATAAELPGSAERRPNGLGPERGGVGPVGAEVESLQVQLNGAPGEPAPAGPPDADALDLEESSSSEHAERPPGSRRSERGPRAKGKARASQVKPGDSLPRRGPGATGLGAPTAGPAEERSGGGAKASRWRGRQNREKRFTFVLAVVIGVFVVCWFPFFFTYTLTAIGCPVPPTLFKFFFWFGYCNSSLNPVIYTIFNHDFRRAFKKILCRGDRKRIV
# Method: (§1) The α1 - and α2 -adrenergic receptor binding was determined for 1-(3-halo-2-pyridinyl)piperazines and a number of other structurally related compounds shown in Table I.
# (§2) Binding to the α2 -adrenergic receptor was determined by the method of Lyon and Randall, Life Sciences, 26, 1121 (1980) and also is expressed in Table I as Ki representing the affinity of each compound for the [^3 H] clonidine binding site in calf cerebral cortex.
# [2] = biological target: α1-adrenergic receptor; assay: α1-adrenergic receptor binding ([3H] prazosin binding site, calf cerebral cortex); conditions: for Ki: [3H] prazosin binding site, calf cerebral cortex; for affinity for the α1-adrenergic receptors (in words): of the compounds tested
# Method: as §1
# Extent of binding to the α1 -adrenergic receptor was determined by the method of Greengrass and Bremner, Eur. J. Pharmacol., 55, 323 (1979) and is expressed in Table I as Ki, representing the affinity of each compound for the [^3 H] prazosin binding site in calf cerebral cortex.
# [3] = tested on: α2-adrenergic receptor; assay: α2-adrenergic receptor binding ([3H] clonidine binding site, calf cerebral cortex); conditions: compared to any of the other tested compounds
# Method: as §1, §2
# [4] = tested on: α1- or α2-adrenergic receptors; conditions: Clineschmidt et al. 1979; cited from earlier work
# [5] = tested on: depression; conditions: in vivo; cited from earlier work
# [6] = tested on: norepinephrine reuptake; conditions: cited from earlier work
# [7] = tested on: α2-adrenergic receptors; conditions: cited from earlier work
# [8] = tested on: locomotor depressant effects of methyldopa; conditions: rats; Clineschmidt et al. 1980; cited from earlier work
# [9] = tested on: sedation produced by clonidine; conditions: Drew et al. 1979; cited from earlier work
# [10] = tested on: clonidine-induced sedation; conditions: man; Autret et al. 1977; cited from earlier work
# [11] = [3H] clonidine binding site, calf cerebral cortex, read-out: Adrenergic Binding Ki α2
structure (smiles),measurement,setting,value
Clc1cncc(N2CCNCC2)n1 [Compound 9],Ki,[1],127 nM
same,Ki,[2],2400 nM
"Fc1cccnc1N1CCNCC1 [Compound 1, 1-(3-fluoro-2-pyridinyl)piperazine]",Ki,[1],8.3 nM
same,affinity for the α2-adrenergic receptors (in words),[1],strongest affinity (lowest Ki)
same,selectivity or ratio of Kiα1/Kiα2 (in words),[3],greatest selectivity
same,Ki,[2],2300 nM
same,affinity for the α1-adrenergic receptors (in words),[2],weakest affinity (highest Ki)
Clc1cccc(N2CCNCC2)n1 [Compound 6],Ki,[1]; [11],18 nM
same,Ki,[2],500 nM
CN1CCN2c3ccccc3Cc3ccccc3C2C1 (centres unmarked) [Mianserin],selectivity for α1- or α2-adrenergic receptors,[4],fails to exhibit any important selectivity for α1 - or α2 -adrenergic receptors
same,clinical antidepressant effectiveness,[5],clinically effective antidepressant
same,in vivo norepinephrine reuptake inhibiting properties,[6],minimal in vivo norepinephrine reuptake inhibiting properties
same,α2-adrenergic receptor blockade,[7],blocks α2 -adrenergic receptors
Clc1nccnc1N1CCNCC1 [Compound 10],Ki,[1]; [11],160 nM
same,Ki,[2],26000 nM
CN1CCN(c2ncccc2Br)CC1 [Compound 5],Ki,[1]; [11],2.9 nM
same,Ki,[2],160 nM
COC(=O)[C@@H]1[C@H]2C[C@H]3c4[nH]c5ccccc5c4CCN3C[C@@H]2CC[C@@H]1O [yohimbine],effect on locomotor depressant effects of methyldopa,[8],antagonizes
same,effect on sedation produced by clonidine,[9],antagonizes the sedation produced by clonidine
same,effect on clonidine-induced sedation,[10],reduce clonidine-induced sedation in man
"Clc1cccnc1N1CCNCC1 [Compound 2, 1-(3-chloro-2-pyridinyl)piperazine]",Ki,[1]; [11],7.9 nM
same,affinity for the α2-adrenergic receptors (in words),[1],strongest affinity (lowest Ki)
same,selectivity or ratio of Kiα1/Kiα2 (in words),[3],greatest selectivity
same,Ki,[2],1800 nM
same,affinity for the α1-adrenergic receptors (in words),[2],weakest affinity (highest Ki)
c1ccc(N2CCNCC2)nc1 [Compound 7],Ki,[1]; [11],37 nM
same,Ki,[2],2400 nM
"Brc1cccnc1N1CCNCC1 [Compound 3, 1-(3-bromo-2-pyridinyl)piperazine]",Ki,[1]; [11],11 nM
same,affinity for the α2-adrenergic receptors (in words),[1],strongest affinity (lowest Ki)
same,selectivity or ratio of Kiα1/Kiα2 (in words),[3],greatest selectivity
same,Ki,[2],1480 nM
same,affinity for the α1-adrenergic receptors (in words),[2],weakest affinity (highest Ki)
Ic1cccnc1N1CCNCC1 [Compound 4],Ki,[1]; [11],42 nM
same,Ki,[2],1600 nM
Clc1ccc(N2CCNCC2)nc1 [Compound 8],Ki,[1],1000 nM
